Where a SMILES comes first, the peptide text is derived from it.
Assays:
[1] = target: T1, Alpha-2B adrenergic receptor (Homo sapiens, UniProt P18089)
T1 sequence (P18089 whole entry): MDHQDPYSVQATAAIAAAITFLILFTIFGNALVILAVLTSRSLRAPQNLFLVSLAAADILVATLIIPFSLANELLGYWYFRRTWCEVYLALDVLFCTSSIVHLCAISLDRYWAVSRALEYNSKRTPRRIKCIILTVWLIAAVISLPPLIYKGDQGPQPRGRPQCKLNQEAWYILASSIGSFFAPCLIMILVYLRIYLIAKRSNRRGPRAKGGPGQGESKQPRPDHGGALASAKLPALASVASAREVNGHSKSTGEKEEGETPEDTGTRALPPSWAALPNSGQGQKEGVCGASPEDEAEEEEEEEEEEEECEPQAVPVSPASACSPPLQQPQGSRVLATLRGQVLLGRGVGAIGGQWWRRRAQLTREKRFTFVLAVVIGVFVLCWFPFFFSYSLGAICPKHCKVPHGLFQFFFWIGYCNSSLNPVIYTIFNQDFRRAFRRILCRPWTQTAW

[2] = target: Voltage-gated inwardly rectifying potassium channel KCNH2 (Homo sapiens, UniProt Q12809); assay type: functional; details: read-out: AC50
Sequence of Voltage-gated inwardly rectifying potassium channel KCNH2 (Q12809 whole entry): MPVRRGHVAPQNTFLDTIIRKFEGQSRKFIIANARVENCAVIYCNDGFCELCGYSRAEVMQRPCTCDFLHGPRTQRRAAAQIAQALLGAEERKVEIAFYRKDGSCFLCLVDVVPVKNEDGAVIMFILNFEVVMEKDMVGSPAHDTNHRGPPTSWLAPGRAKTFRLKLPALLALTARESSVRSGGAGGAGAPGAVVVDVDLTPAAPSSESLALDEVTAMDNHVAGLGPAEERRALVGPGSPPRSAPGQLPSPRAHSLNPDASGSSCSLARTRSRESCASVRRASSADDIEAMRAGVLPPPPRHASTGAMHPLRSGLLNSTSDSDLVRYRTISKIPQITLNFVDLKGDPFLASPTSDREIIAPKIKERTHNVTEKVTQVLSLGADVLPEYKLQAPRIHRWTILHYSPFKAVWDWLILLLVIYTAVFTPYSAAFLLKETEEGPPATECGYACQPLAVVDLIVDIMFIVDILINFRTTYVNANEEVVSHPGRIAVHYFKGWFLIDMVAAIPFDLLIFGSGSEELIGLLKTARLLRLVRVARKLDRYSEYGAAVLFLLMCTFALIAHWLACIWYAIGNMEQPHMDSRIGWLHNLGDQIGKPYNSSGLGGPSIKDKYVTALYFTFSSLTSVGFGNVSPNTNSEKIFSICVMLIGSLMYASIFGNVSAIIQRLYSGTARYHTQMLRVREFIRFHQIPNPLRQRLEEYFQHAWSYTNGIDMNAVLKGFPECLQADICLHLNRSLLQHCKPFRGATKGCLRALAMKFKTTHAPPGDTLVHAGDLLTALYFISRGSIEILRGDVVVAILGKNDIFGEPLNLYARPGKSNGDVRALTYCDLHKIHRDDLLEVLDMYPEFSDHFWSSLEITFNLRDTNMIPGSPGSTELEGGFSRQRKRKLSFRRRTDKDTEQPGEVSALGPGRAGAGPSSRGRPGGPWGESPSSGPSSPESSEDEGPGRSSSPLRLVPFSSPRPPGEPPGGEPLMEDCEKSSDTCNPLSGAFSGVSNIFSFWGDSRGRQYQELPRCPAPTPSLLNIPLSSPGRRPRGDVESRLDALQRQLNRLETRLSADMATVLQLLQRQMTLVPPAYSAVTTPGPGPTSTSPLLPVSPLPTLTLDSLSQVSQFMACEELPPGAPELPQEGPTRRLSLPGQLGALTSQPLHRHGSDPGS

[3] = target: T2, Alpha-2A adrenergic receptor (Homo sapiens, UniProt P08913); assay type: functional, cell-based
T2 sequence (P08913 whole entry): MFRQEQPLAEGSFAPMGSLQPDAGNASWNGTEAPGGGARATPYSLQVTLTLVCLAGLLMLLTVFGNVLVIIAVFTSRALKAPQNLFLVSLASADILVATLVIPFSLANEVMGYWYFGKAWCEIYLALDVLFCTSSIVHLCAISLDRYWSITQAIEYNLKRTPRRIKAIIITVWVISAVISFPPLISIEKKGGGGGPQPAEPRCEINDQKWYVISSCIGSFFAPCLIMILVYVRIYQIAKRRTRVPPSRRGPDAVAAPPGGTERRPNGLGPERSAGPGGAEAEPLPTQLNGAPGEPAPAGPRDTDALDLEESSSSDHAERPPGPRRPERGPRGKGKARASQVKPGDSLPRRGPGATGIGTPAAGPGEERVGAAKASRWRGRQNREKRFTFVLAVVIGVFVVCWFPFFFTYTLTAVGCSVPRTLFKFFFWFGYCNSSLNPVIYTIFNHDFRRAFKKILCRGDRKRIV

[4] = target: Gamma-aminobutyric acid receptor subunit alpha-1 (Rattus norvegicus, UniProt P62813)
Sequence of Gamma-aminobutyric acid receptor subunit alpha-1 (P62813 whole entry): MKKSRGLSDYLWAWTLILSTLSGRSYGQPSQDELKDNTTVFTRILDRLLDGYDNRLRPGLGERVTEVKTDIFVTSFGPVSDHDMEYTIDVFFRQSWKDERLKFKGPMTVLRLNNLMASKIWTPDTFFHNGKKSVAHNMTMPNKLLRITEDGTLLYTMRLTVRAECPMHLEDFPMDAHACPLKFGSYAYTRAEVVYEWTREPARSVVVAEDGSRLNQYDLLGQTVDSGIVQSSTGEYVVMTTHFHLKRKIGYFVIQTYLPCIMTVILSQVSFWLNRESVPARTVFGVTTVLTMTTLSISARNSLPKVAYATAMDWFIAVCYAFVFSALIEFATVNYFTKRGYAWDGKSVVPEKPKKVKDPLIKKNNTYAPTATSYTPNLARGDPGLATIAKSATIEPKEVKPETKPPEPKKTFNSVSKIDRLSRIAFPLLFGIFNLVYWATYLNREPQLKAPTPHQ

[5] = target: T3, Thromboxane A2 receptor (Homo sapiens, UniProt P21731)
T3 sequence (P21731 whole entry): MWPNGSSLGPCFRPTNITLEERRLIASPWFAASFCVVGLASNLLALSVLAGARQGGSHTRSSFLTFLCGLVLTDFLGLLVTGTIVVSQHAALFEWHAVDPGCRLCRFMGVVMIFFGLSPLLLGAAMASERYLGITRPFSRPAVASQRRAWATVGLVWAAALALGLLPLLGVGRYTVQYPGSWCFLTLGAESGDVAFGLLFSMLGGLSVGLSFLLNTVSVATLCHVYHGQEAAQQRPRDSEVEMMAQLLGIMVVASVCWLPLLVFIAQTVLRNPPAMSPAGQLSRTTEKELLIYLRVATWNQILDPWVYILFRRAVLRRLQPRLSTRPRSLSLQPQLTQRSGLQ

[6] = target: T4, Progesterone receptor (Homo sapiens, UniProt P06401); assay type: functional
T4 sequence (P06401 whole entry): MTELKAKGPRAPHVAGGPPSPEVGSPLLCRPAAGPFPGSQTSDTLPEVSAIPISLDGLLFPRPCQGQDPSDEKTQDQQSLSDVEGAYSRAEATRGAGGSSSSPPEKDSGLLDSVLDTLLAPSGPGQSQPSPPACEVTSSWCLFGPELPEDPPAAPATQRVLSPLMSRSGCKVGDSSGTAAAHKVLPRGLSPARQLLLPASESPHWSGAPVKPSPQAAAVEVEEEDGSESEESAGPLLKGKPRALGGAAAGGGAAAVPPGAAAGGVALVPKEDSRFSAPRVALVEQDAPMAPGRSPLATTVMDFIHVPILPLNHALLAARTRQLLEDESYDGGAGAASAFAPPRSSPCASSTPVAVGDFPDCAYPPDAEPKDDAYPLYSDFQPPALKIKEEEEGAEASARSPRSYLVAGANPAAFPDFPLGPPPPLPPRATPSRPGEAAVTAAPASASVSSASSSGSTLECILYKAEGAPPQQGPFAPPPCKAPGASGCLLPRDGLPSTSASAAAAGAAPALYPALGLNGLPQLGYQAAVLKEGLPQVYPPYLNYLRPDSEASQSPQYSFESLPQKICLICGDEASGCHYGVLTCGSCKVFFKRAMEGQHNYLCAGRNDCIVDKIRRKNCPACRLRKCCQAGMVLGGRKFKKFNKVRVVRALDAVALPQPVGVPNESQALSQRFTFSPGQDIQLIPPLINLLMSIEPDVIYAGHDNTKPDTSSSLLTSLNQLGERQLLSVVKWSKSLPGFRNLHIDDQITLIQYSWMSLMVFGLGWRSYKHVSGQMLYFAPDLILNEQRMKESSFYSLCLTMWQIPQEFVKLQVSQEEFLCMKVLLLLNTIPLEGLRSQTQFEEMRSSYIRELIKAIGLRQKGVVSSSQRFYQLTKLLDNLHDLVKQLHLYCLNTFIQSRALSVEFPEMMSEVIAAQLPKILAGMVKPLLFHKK

[7] = target: T5, Muscarinic acetylcholine receptor M1 (Homo sapiens, UniProt P11229); assay type: functional
T5 sequence (P11229 whole entry): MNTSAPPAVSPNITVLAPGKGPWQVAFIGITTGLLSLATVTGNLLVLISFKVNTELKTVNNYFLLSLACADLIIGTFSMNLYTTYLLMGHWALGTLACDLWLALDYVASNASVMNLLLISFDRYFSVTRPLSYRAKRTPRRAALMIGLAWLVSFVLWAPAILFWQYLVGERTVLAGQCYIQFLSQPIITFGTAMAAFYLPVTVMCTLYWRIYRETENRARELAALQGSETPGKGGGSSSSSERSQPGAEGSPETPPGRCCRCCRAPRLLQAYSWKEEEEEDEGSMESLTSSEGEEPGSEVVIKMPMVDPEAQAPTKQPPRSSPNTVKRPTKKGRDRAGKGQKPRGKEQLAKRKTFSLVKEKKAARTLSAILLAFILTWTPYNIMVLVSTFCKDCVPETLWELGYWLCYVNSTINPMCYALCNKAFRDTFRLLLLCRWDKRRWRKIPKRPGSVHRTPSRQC

[8] = target: Kappa-type opioid receptor (Homo sapiens, UniProt P41145)
Sequence of Kappa-type opioid receptor (P41145 whole entry): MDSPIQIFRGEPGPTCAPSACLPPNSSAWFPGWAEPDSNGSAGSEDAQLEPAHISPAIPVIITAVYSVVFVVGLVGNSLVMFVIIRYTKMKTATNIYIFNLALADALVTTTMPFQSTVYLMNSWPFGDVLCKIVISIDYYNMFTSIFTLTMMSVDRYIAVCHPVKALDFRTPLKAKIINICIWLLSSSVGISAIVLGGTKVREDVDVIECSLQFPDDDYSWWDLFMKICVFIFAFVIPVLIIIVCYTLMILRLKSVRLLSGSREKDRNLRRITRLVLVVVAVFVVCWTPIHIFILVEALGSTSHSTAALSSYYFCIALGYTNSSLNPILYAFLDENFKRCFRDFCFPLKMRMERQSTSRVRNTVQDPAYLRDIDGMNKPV

[9] = target: Vasopressin V2 receptor (Homo sapiens, UniProt P30518)
Sequence of Vasopressin V2 receptor (P30518 whole entry): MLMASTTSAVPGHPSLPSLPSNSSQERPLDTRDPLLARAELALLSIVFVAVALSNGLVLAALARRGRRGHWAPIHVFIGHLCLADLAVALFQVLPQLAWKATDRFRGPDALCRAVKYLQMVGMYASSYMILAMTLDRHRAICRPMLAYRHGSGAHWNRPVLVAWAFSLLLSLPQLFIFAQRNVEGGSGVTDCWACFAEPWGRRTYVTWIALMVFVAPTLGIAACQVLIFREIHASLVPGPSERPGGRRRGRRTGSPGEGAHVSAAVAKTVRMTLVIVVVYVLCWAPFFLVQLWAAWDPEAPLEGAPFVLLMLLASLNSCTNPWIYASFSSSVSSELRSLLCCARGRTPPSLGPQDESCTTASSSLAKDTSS

[10] = target: Cannabinoid receptor 1 (Homo sapiens, UniProt P21554); assay type: functional, cell-based
Sequence of Cannabinoid receptor 1 (P21554 whole entry): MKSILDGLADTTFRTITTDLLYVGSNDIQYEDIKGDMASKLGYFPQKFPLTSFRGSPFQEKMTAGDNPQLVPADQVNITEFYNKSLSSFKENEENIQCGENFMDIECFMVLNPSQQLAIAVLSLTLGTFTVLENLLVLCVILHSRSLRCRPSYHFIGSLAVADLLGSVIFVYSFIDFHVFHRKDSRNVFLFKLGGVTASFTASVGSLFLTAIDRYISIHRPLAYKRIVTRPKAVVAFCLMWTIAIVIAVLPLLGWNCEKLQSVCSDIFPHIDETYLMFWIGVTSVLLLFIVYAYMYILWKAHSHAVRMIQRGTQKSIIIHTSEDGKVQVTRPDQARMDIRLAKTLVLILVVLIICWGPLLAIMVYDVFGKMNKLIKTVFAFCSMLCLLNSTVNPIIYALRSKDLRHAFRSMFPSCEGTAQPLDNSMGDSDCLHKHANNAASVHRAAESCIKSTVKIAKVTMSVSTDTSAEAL
Further: assay procedure not described here.

SMILES	AC50 [1] [µM]	AC50 [2] [µM]	AC50 [3] [µM]	AC50 [4] [µM]	AC50 [5] [µM]	AC50 [6] [µM]	AC50 [7] [µM]	AC50 [8] [µM]	AC50 [9] [µM]	AC50 [10] [µM]
CCCO[C@H]1[C@@H]([C@@H](COCc2ccc(Cl)cc2)OCc2ccc(Cl)cc2)OC(OCC)[C@@H]1O (stereo not given in full) [CLOBENOSIDE]	> 30	> 30	> 30	> 30	> 30	> 30	> 30	27	> 30	> 30
COc1ccc(C(Cl)=C(c2ccc(OC)cc2)c2ccc(OC)cc2)cc1 [CHLOROTRIANISENE]	> 30	> 30	> 30	> 30	> 10	> 30	> 30	> 30	> 30	> 30
C[C@@H](Cc1ccccc1)N(C)Cc1ccccc1 [BENZPHETAMINE]	2.8	14.5	> 10	> 10	> 10	> 10	> 10	1.97	> 10	> 30
CCN(CC)CCCN(c1ccccc1)C1Cc2ccccc2C1 [APRINDINE]	> 30	1	> 30	> 30	> 10	> 30	14.5	0.795	> 30	> 30
CN1CCCN=C1/C=C/c1cccc(O)c1 [OXANTEL]	> 30	6.2	> 30	> 30	> 30	> 30	> 30	20	> 30	> 30
Cc1ccc(S(=O)(=O)NC(=O)N[C@H]2[C@H]3CC[C@@](C)([C@H]2O)C3(C)C)cc1 [GLIBORNURIDE]	> 30	> 30	> 30	> 30	> 30	> 30	> 30	> 30	> 30	> 30
CCN(CC)Cc1nccn1-c1ccc([N+](=O)[O-])cc1C(=O)c1ccccc1Cl [NIZOFENONE]	> 10	1.38	> 30	> 30	> 30	> 30	> 30	6.3	> 30	> 30
CC1=C(/C=C/C(C)=C/C=C/C(C)=C/C(=O)Oc2c(C)c(C)c3c(c2C)CCC(C)(CCCC(C)CCCC(C)CCCC(C)C)O3)C(C)(C)CCC1 (stereo not given) [TRETINOIN TOCOFERIL]	> 30	> 30	> 30	> 30	> 30	> 30	> 30	> 30	> 30	> 30
CO/N=C(\C(=O)N[C@@H]1C(=O)N2C(C(=O)O)=C(CSc3nc(C)c(CC(=O)O)s3)CS[C@H]12)c1csc(N)n1 [CEFODIZIME]	> 30	> 30	> 30	> 30	> 30	> 30	> 30	> 30	> 30	> 30
C=C(c1ccccc1OCc1cccc(Cl)c1)n1ccnc1 [CROCONAZOLE]	> 10	4.97	> 10	> 10	16.2	> 30	> 10	1.03	> 30	15
COc1cc(N)cn[n+]1-c1ccccc1 [AMEZINIUM METILSULFATE]	> 30	3.8	> 30	> 30	> 30	> 30	> 30	> 30	> 30	> 30
NS(=O)(=O)c1ccc(N2CCCCS2(=O)=O)cc1	> 30	> 30	> 30	> 30	> 30	> 30	> 30	21	> 30	> 30
CC(C(=O)O)c1ccc(C(=O)c2ccccc2)s1 (stereo not given) [TIAPROFENIC ACID]	> 10	9.26	> 10	> 10	> 10	> 10	> 10	> 10	> 10	> 30
CCCCC[C@H](O)CC[C@@H]1[C@H]2Cc3cccc(OCC(=O)O)c3C[C@H]2C[C@H]1O [TREPROSTINIL]	> 30	> 30	> 30	> 30	> 30	> 30	> 30	> 30	> 30	> 30
C[C@H](N)C(=O)N[C@@H](CCC(N)=O)C(=O)O [ALANYL GLUTAMINE] (H-Ala-Gln-OH)	> 30	> 30	> 30	> 30	> 30	> 30	> 30	> 30	> 30	> 30
O=C(C[S+]([O-])Cc1ccco1)NC/C=C\COc1cc(CN2CCCCC2)ccn1 (stereo not given) [LAFUTIDINE]	> 10	> 30	> 10	> 10	> 10	> 10	> 10	> 10	> 10	> 30
